Laboratory results as given in patent EP0200794A1, “Derivatives of ubiquinone, process for their preparation and pharmaceutical compositions containing them” (MAGIS FARMACEUTICI S.p.A., priority 1985, dated 1986).

How the values were obtained:
[1] = tested on: rats of Sprague-Dawley stock; experiment: Chronic toxicity; format: in vivo; details: Sprague-Dawley rats of both sexes, oral and intravenous way, 50 mg/kg per day for three months
Procedure: The chronic toxicity of the new derivatives has been studied by oral and intravenous way in the rats of Sprague-Dawley stock of both sexes, of body weight of about 210 g. The new derivatives, used as drops or in aqueous solution, have been administred to groups of 10 animals (5 males and 5 females). The tests have been carried out in parallel with equivalent amounts of ubiquinone (hydroalcoholic solution). The doses have been of 50 mg/kg per day for three months.

[2] = Light stability in oral preparations; format: physicochemical

Molecule | toxic effects (chronic toxicity) [1] | stability under the effect of the light [2]
COC1=C(OC)C(=O)C(C/C=C(\C)CC/C=C(\C)CC/C=C(\C)CC/C=C(\C)CC/C=C(\C)CC/C=C(\C)CC/C=C(\C)CC/C=C(\C)CC/C=C(\C)CCC=C(C)C)=C(C)C1=O [ubiquinone, Ubiquinone(10)] | No toxic effects | 
Ubiquinone bisulphite [Example 1] |  | high stability
